Experiments:
Assay type in all cases: in vivo
[1] = test system: barnyardgrass (Echinochloa crus-galli); assay: Test G Pre-Emergence Protocol; details: Echinochloa crus-galli, pre-emergence, 312 h, evaluated after 13 days; for pest or weed control at 15.625 g/ha: 15.625 g ai/ha, read-out: Barnyard grass damage rating (100=total damage to plant; 0=no damage to plant); for pest or weed control at 62.5 g/ha: 62.5 g ai/ha, 100=total damage to plant, 0=no damage to plant, read-out: plant damage rating, Barnyardgrass; for pest or weed control at 250 g/ha: 250 g ai/ha, read-out: Barnyardgrass damage rating (100=total damage to plant; 0=no damage to plant)
In short: (§1)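 Test compound in 0.5% Tween 20 acetone/water (50:50) was applied at three rates (15.625, 62.5, 250 g/ha) to soil sown one day earlier. After 13 days plants were scored for injury, where 0 means unaffected and 100 means completely damaged.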

corn (Zea mays) [2] = assay: Test G Pre-Emergence Protocol; details: Zea mays, pre-emergence, 312 h, evaluated after 13 days; for plant injury at 15.625 g/ha: 15.625 g ai/ha; for plant injury at 15.625 g/ha / plant injury at 250 g/ha: read-out: Corn damage rating (100=total damage to plant; 0=no damage to plant); for plant injury at 62.5 g/ha: 62.5 g ai/ha, 100=total damage to plant, 0=no damage to plant, read-out: plant damage rating, Corn; for plant injury at 250 g/ha: 250 g ai/ha
In short: as §1

[3] = test system: giant foxtail (Setaria faberi); assay: Test G Pre-Emergence Protocol; details: Setaria faberi, pre-emergence, 312 h, evaluated after 13 days; for pest or weed control at 15.625 g/ha: 15.625 g ai/ha; for pest or weed control at 15.625 g/ha / pest or weed control at 250 g/ha: read-out: Foxtail, Giant damage rating (100=total damage to plant; 0=no damage to plant); for pest or weed control at 62.5 g/ha: 62.5 g ai/ha, 100=total damage to plant, 0=no damage to plant, read-out: plant damage rating, Foxtail, Giant; for pest or weed control at 250 g/ha: 250 g ai/ha
In short: as §1

[4] = test system: ivy-leaved morning glory (Ipomoea hederacea); assay: Test G Pre-Emergence Protocol; details: Ipomoea, pre-emergence, 312 h, evaluated after 13 days; for pest or weed control at 15.625 g/ha: 15.625 g ai/ha, read-out: Morning-glory, Ivy-leaved damage rating (100=total damage to plant; 0=no damage to plant); for pest or weed control at 62.5 g/ha: 62.5 g ai/ha, 100=total damage to plant, 0=no damage to plant, read-out: plant damage rating, Morningglory, Ivy-leaved; for pest or weed control at 250 g/ha: 250 g ai/ha, read-out: Morningglory, Ivy-leaved damage rating (100=total damage to plant; 0=no damage to plant)
In short: as §1

[5] = test system: redroot pigweed (Amaranthus retroflexus); assay: Test G Pre-Emergence Protocol; details: Amaranthus retroflexus, pre-emergence, 312 h, evaluated after 13 days; for pest or weed control at 15.625 g/ha: 15.625 g ai/ha; for pest or weed control at 15.625 g/ha / pest or weed control at 250 g/ha: read-out: Pigweed, Redroot damage rating (100=total damage to plant; 0=no damage to plant); for pest or weed control at 62.5 g/ha: 62.5 g ai/ha, 100=total damage to plant, 0=no damage to plant, read-out: plant damage rating, Pigweed, Redroot; for pest or weed control at 250 g/ha: 250 g ai/ha
In short: as §1

[6] = test system: velvetleaf (Abutilon theophrasti); assay: Test G Pre-Emergence Protocol; details: Abutilon theophrasti, pre-emergence, 312 h, evaluated after 13 days; for pest or weed control at 15.625 g/ha: 15.625 g ai/ha; for pest or weed control at 15.625 g/ha / pest or weed control at 250 g/ha: read-out: Velvetleaf damage rating (100=total damage to plant; 0=no damage to plant); for pest or weed control at 62.5 g/ha: 62.5 g ai/ha, 100=total damage to plant, 0=no damage to plant, read-out: plant damage rating, Velvetleaf; for pest or weed control at 250 g/ha: 250 g ai/ha
In short: as §1

[7] = test system: barnyardgrass (Echinochloa crus-galli); assay: Test G Post-Emergence Protocol; details: Echinochloa crus-galli, post-emergence, 312 h; for pest or weed control at 15.625 g/ha: 15.625 g ai/ha, evaluated after 13 days (100=total damage to plant; 0=no damage to plant), read-out: Barnyardgrass damage rating; for pest or weed control at 62.5 g/ha: 62.5 g ai/ha, read-out: Barnyardgrass damage rating (100=total damage to plant; 0=no damage to plant); for pest or weed control at 62.5 g/ha / pest or weed control at 250 g/ha: evaluated after 13 days; for pest or weed control at 250 g/ha: 250 g ai/ha, read-out: damage to plant, Barnyardgrass (100=total damage to plant; 0=no damage to plant)
In short: (§2)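 Damage was rated 13 days after treatment from 0 (none) to 100 (plant killed). Compound was applied as a spray at 15.625, 62.5 or 250 g/ha in 50:50 acetone/water containing 0.5% Tween 20, onto 8-day-old potted plants kept in a glasshouse (24/16 °C, 14 h light, 65% humidity).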

corn (Zea mays) [8] = assay: Test G Post-Emergence Protocol; details: Zea mays, post-emergence, 312 h; for plant injury at 15.625 g/ha: 15.625 g ai/ha, evaluated after 13 days (100=total damage to plant; 0=no damage to plant), read-out: Corn damage rating; for plant injury at 62.5 g/ha: 62.5 g ai/ha, read-out: Corn damage rating (100=total damage to plant; 0=no damage to plant); for plant injury at 62.5 g/ha / plant injury at 250 g/ha: evaluated after 13 days; for plant injury at 250 g/ha: 250 g ai/ha, read-out: damage to plant, Corn (100=total damage to plant; 0=no damage to plant)
In short: as §2

[9] = test system: giant foxtail (Setaria faberi); assay: Test G Post-Emergence Protocol; details: Setaria faberi, post-emergence, 312 h; for pest or weed control at 15.625 g/ha: 15.625 g ai/ha, evaluated after 13 days (100=total damage to plant; 0=no damage to plant), read-out: Foxtail, Giant damage rating; for pest or weed control at 62.5 g/ha: 62.5 g ai/ha, read-out: Foxtail, Giant damage rating (100=total damage to plant; 0=no damage to plant); for pest or weed control at 62.5 g/ha / pest or weed control at 250 g/ha: evaluated after 13 days; for pest or weed control at 250 g/ha: 250 g ai/ha, read-out: damage to plant, Foxtail, Giant (100=total damage to plant; 0=no damage to plant)
In short: as §2

[10] = test system: ivy-leaved morning glory (Ipomoea hederacea); assay: Test G Post-Emergence Protocol; details: Ipomoea, post-emergence, 312 h; for pest or weed control at 15.625 g/ha: 15.625 g ai/ha, evaluated after 13 days (100=total damage to plant; 0=no damage to plant), read-out: Morningglory, Ivy-leaved damage rating; for pest or weed control at 62.5 g/ha: 62.5 g ai/ha, read-out: Morningglory, Ivy-leaved damage rating (100=total damage to plant; 0=no damage to plant); for pest or weed control at 62.5 g/ha / pest or weed control at 250 g/ha: evaluated after 13 days; for pest or weed control at 250 g/ha: 250 g ai/ha, read-out: damage to plant, Morningglory, Ivy-leaved (100=total damage to plant; 0=no damage to plant)
In short: as §2

[11] = test system: redroot pigweed (Amaranthus retroflexus); assay: Test G Post-Emergence Protocol; details: Amaranthus retroflexus, post-emergence, 312 h; for pest or weed control at 15.625 g/ha: 15.625 g ai/ha, evaluated after 13 days (100=total damage to plant; 0=no damage to plant), read-out: Pigweed, Redroot damage rating; for pest or weed control at 62.5 g/ha: 62.5 g ai/ha, read-out: Pigweed, Redroot damage rating (100=total damage to plant; 0=no damage to plant); for pest or weed control at 62.5 g/ha / pest or weed control at 250 g/ha: evaluated after 13 days; for pest or weed control at 250 g/ha: 250 g ai/ha, read-out: damage to plant, Pigweed, Redroot (100=total damage to plant; 0=no damage to plant)
In short: as §2

[12] = test system: velvetleaf (Abutilon theophrasti); assay: Test G Post-Emergence Protocol; details: Abutilon theophrasti, post-emergence, 312 h; for pest or weed control at 15.625 g/ha: 15.625 g ai/ha, evaluated after 13 days (100=total damage to plant; 0=no damage to plant), read-out: Velvetleaf damage rating; for pest or weed control at 62.5 g/ha: 62.5 g ai/ha, read-out: Velvetleaf damage rating (100=total damage to plant; 0=no damage to plant); for pest or weed control at 62.5 g/ha / pest or weed control at 250 g/ha: evaluated after 13 days; for pest or weed control at 250 g/ha: 250 g ai/ha, read-out: damage to plant, Velvetleaf (100=total damage to plant; 0=no damage to plant)
In short: as §2

SMILES	pest or weed control at 15.625 g/ha [1]	pest or weed control at 62.5 g/ha [1]	pest or weed control at 250 g/ha [1]	plant injury at 15.625 g/ha (corn (Zea mays) [2])	plant injury at 62.5 g/ha (corn (Zea mays) [2])	plant injury at 250 g/ha (corn (Zea mays) [2])	pest or weed control at 15.625 g/ha [3]	pest or weed control at 62.5 g/ha [3]	pest or weed control at 250 g/ha [3]	pest or weed control at 15.625 g/ha [4]	pest or weed control at 62.5 g/ha [4]	pest or weed control at 250 g/ha [4]	pest or weed control at 15.625 g/ha [5]	pest or weed control at 62.5 g/ha [5]	pest or weed control at 250 g/ha [5]	pest or weed control at 15.625 g/ha [6]	pest or weed control at 62.5 g/ha [6]	pest or weed control at 250 g/ha [6]	pest or weed control at 15.625 g/ha [7]	pest or weed control at 62.5 g/ha [7]	also measured
Cc1csc(NC(=O)[C@@H]2C(=O)N(C)C[C@H]2c2ccc(C(F)(F)F)cc2)c1C#N (racemic) [Compound 1576]	30%	70%	90%	0%	0%	20%	30%	70%	70%	0%	0%	0%	0%	0%	20%	0%	0%	0%	10%	60%	pest or weed control at 250 g/ha [7]: 70%; plant injury at 15.625 g/ha (corn (Zea mays) [8]): 0%; plant injury at 62.5 g/ha (corn (Zea mays) [8]): 20%; plant injury at 250 g/ha (corn (Zea mays) [8]): 10%; pest or weed control at 15.625 g/ha [9]: 30%; pest or weed control at 62.5 g/ha [9]: 40%; pest or weed control at 250 g/ha [9]: 70%; pest or weed control at 15.625 g/ha [10]: 0%; pest or weed control at 62.5 g/ha [10]: 20%; pest or weed control at 250 g/ha [10]: 20%; pest or weed control at 15.625 g/ha [11]: 0%; pest or weed control at 62.5 g/ha [11]: 0%; pest or weed control at 250 g/ha [11]: 0%; pest or weed control at 15.625 g/ha [12]: 0%; pest or weed control at 62.5 g/ha [12]: 0%; pest or weed control at 250 g/ha [12]: 10%
CN1C[C@@H](c2ccc(C(F)(F)F)cc2)[C@H](C(=O)Nc2cccnn2)C1=O (racemic) [Compound 1577]	0%	0%	0%	0%	0%	0%	0%	0%	0%	0%	0%	0%	0%	0%	0%	0%	0%	0%	0%	0%	pest or weed control at 250 g/ha [7]: 0%; plant injury at 15.625 g/ha (corn (Zea mays) [8]): 0%; plant injury at 62.5 g/ha (corn (Zea mays) [8]): 0%; plant injury at 250 g/ha (corn (Zea mays) [8]): 0%; pest or weed control at 15.625 g/ha [9]: 0%; pest or weed control at 62.5 g/ha [9]: 0%; pest or weed control at 250 g/ha [9]: 0%; pest or weed control at 15.625 g/ha [10]: 0%; pest or weed control at 62.5 g/ha [10]: 0%; pest or weed control at 250 g/ha [10]: 0%; pest or weed control at 15.625 g/ha [11]: 0%; pest or weed control at 62.5 g/ha [11]: 0%; pest or weed control at 250 g/ha [11]: 0%; pest or weed control at 15.625 g/ha [12]: 0%; pest or weed control at 62.5 g/ha [12]: 0%; pest or weed control at 250 g/ha [12]: 0%
Cc1cc(NC(=O)[C@@H]2C(=O)N(C)C[C@H]2c2ccc(C(F)(F)F)cc2)on1 (racemic) [Compound 1579]	0%	0%	0%	0%	0%	0%	0%	0%	0%	0%	0%	0%	0%	0%	0%	0%	0%	0%	0%	10%	pest or weed control at 250 g/ha [7]: 10%; plant injury at 15.625 g/ha (corn (Zea mays) [8]): 0%; plant injury at 62.5 g/ha (corn (Zea mays) [8]): 0%; plant injury at 250 g/ha (corn (Zea mays) [8]): 0%; pest or weed control at 15.625 g/ha [9]: 0%; pest or weed control at 62.5 g/ha [9]: 0%; pest or weed control at 250 g/ha [9]: 0%; pest or weed control at 15.625 g/ha [10]: 0%; pest or weed control at 62.5 g/ha [10]: 0%; pest or weed control at 250 g/ha [10]: 0%; pest or weed control at 15.625 g/ha [11]: 0%; pest or weed control at 62.5 g/ha [11]: 0%; pest or weed control at 250 g/ha [11]: 0%; pest or weed control at 15.625 g/ha [12]: 0%; pest or weed control at 62.5 g/ha [12]: 0%; pest or weed control at 250 g/ha [12]: 0%
